Reference: patent US20070167527A1, “MEMANTINE FOR THE NORMALIZATION OF VISUAL ACUITY DEFICITS” (priority 2006, published 2007)

Assays:
rabbits = assay: Visual acuity by sweep visual evoked potential (swVEP) in conscious rabbits after transient IOP elevation; format: in vivo, rabbit; conditions: 4.5 months after transient IOP elevation; 2.5 kg rabbits pre-treated with oral dose of 50 mg memantine; compared with 50 mg sugar placebo (reduction in acuity)
Protocol: This invention is especially useful in the use of memantine to normalize visual acuity deficits from outer retina (photoreceptor/RPE) injury.
(§1) Rabbits were anesthetized with isofluorane, and prepared for unilateral acute retinal ischemia by raising IOP in the OD eye by 120 mm Hg for 45 minutes. To accomplish this, a reservoir with PBS was suspended 65 inches above the eye and connected to a 30 gauge needle inserted through the cornea into the anterior chamber. A drop of topical anesthetic (proparacaine) was placed upon the cornea prior to needle insertion.
swVEP is an electrophysiological technique for assessing visual acuity in young children who can't read the Snellen eye charts. Pattern reversal images of increasing spatial frequency are projected onto the macula while simultaneously recording electrical activity (VEP) from the scalp. Images with lower spatial frequency generate large signals which get smaller as the spatial frequency increases, until signal=noise; this threshold is the visual acuity. […]
Vertical steady-state pattern-reversal sweep stimulus at spatial frequency range of 0.1 to 5 cycles per degree at a temporal frequency of 7.5 Hz were applied to the eye at mean luminance of 600 cd/m2 and contrast of 80%. […] Trials were averaged and the threshold (visual acuity) was determined by software or manual fitting at signal-to-noise ration no less than 2.5. […]

retinal cells = assay: Histology (H&E) examination of eyes after transient IOP elevation; format: in vivo, rabbit; conditions: compared with the placebo group (patchy loss of predominantly outer retina cells)
Protocol: as §1, with “This invention is especially useful in the use of memantine to normalize visual acuity deficits from outer retina (photoreceptor/RPE) injury. […] Retinal cell degeneration was less in the memantine group compared with the placebo group. Rabbits” for “Rabbits”

SMILES: CC12CC3CC(C)(C1)CC(N)(C3)C2 [memantine]
- visual acuity (rabbits): normal visual acuities
- retinal cell degeneration (retinal cells): less
